Laboratory results: PubChem BioAssay AID2060492 (Molecular Pharmacology Branch, DTP, NCI, 2025)

Test system: 695427-040-R-J1-PDC complex spheroids, viability percent T/C
Experiment: Anticancer human tumor 695427-040-R-J1-PDC patient-derived colon adenocarcinoma cell line growth inhibition [GQUAD]
Details: for IC50: curve of first compound; for viability, T/C: stronger effect = lower value
Description: DNA G-quadruplex Stabilizer Agents in Combinations in Complex Spheroids
A high-throughput screen of multi-cell type tumor spheroids was designed to identify active combinations of DNA G-quadruplex stabilizer agents and targeted small molecules. Complex spheroids include a stromal component modeled by human endothelial cells (HUVEC) and fibroblasts modeled by human mesenchymal stem cells (MSCs). The concentration ranges selected for each drug and investigational agent were based upon clinically achievable concentrations if the clinical Cmax of the agent was known.
Compounds. The drugs and investigational agents: pidnarulex (CX-5461; NSC782164), APTO-253 (NSC789042), BRACO-19 (NSC847499), peposertib (NSC802822), ceralasertib (NSC780249), elimusertib (NSC800525), camonsertib (NSC841442), AZD-1390 (NSC803789), olaparib (NSC753686), talazoparib (NSC767125), ART-558 (NSC835418), sotorasib (NSC818433), MRTX-1133 (NSC836407), SN-38 (NSC673596), topotecan (NSC609699), etoposide (NSC141540), doxorubicin (NSC123127), gemcitabine (NSC613327), 5-fluorouracil (NSC19893), paclitaxel (NSC125973), vemurafenib (NSC761431), panobinostat (NSC761190), R-306465 (JNJ-16241199; NSC773264), adavosertib (NSC754352), TP-3654 (NSC805149), carboplatin (NSC241240), KSQ-4279 (NSC840948), and staurosporine (NSC755774) were obtained from the National Cancer Institute (NCI) Developmental Therapeutics Program Chemical Repository (34). The FDA-approved anticancer drug set is available from the NCI Developmental Therapeutics Program. […] The stock solutions were prepared in dimethyl sulfoxide (DMSO, Sigma-Aldrich, St. Louis, MO, cat. D2650) at 800-fold the tested concentration and stored at -70 degrees C prior to their use. All drugs and investigational agents were tested over a range starting from a high concentration at or near the clinical Cmax and decreasing in half-log increments. If the clinical Cmax for an agent had not been determined, the highest concentration tested was 10 microM.
2.3 Cell Culture. All cells were maintained in an incubator at 37 degrees C and 5% CO2 with 95% humidity. The PDC lines were cultured according to standard operating procedures established by the NCI PDMR. All PDCs were thawed and cultured in Matrigel-coated flasks prepared with a working solution of 1X Ham's F-12 nutrient mix, without supplementation (Invitrogen, cat. 11765054), 100 U/mL penicillin-streptomycin (Invitrogen, cat. 15140122), and 2.5% Matrigel (Corning Inc., cat. 354248) for the first three passages. The 857933-349-R-J2-PDC line was cultured in 6C/Colon 1B media, which includes advanced DMEM/F-12 (Thermo Fisher Scientific, cat. 12634028), 10 mM HEPES (Thermo Fisher Scientific, cat. 15630080), 1X GlutaMAX supplement (Thermo Fisher Scientific, cat. 35050061), 0.1 mg/mL primocin (InvivoGen, cat. ant-pm-2), 10% defined fetal bovine serum, heat inactivated (HyClone Laboratories Inc., cat. SH30070.03HI), 50% L-WRN conditioned media (ATCC, cat. CRL-3276), 1.25 mM N-Acetyl-L-cysteine (Sigma-Aldrich, cat. A9165), 10 mM nicotinamide (Sigma-Aldrich, cat. N0636), 1X B-27 supplement (Thermo Fisher Scientific, cat. 17504044), 1X N-2 supplement (Thermo Fisher Scientific, cat. 17502048), 10 microM Y-27632 dihydrochloride (Tocris Bioscience, cat. 1254), and 50 ng/mL human EGF recombinant protein (Thermo Fisher Scientific, cat. PHG0311). The 485176-168-R4-J1-PDC line was cultured in Panc media, which includes all 6C/Colon 1B media components plus 100 ng/mL human FGF-10 (Thermo Fisher Scientific, cat. 100-26), 500 nM SB-431542 (Selleckchem, cat. S1067), and gastrin (Tocris, cat. 3006).
[…]

[1] = second compound 0.0316 µM, first compound 0.0316 µM
[2] = second compound 0.0316 µM, first compound 0.1 µM
[3] = second compound 0.0316 µM, first compound 0.316 µM
[4] = second compound 0.0316 µM, first compound 1 µM
[5] = second compound 0.0316 µM, first compound 3.16 µM
[6] = second compound 0.0316 µM, first compound 10 µM
[7] = second compound 0.1 µM, first compound 0.0316 µM
[8] = second compound 0.1 µM, first compound 0.1 µM
[9] = second compound 0.1 µM, first compound 0.316 µM
[10] = second compound 0.1 µM, first compound 1 µM
[11] = second compound 0.1 µM, first compound 3.16 µM
[12] = second compound 0.1 µM, first compound 10 µM
[13] = second compound 0.316 µM, first compound 0.0316 µM
[14] = second compound 0.316 µM, first compound 0.1 µM
[15] = second compound 0.316 µM, first compound 0.316 µM
[16] = second compound 0.316 µM, first compound 1 µM
[17] = second compound 0.316 µM, first compound 3.16 µM
[18] = second compound 0.316 µM, first compound 10 µM
[19] = second compound 1 µM, first compound 0.0316 µM
[20] = second compound 1 µM, first compound 0.1 µM
[21] = second compound 1 µM, first compound 0.316 µM
[22] = second compound 1 µM, first compound 1 µM
[23] = second compound 1 µM, first compound 3.16 µM
[24] = second compound 1 µM, first compound 10 µM
[25] = second compound 3.16 µM, first compound 0.0316 µM
[26] = second compound 3.16 µM, first compound 0.1 µM
[27] = second compound 3.16 µM, first compound 0.316 µM
[28] = second compound 3.16 µM, first compound 1 µM
[29] = second compound 3.16 µM, first compound 3.16 µM
[30] = second compound 3.16 µM, first compound 10 µM
[31] = second compound 10 µM, first compound 0.0316 µM
[32] = second compound 10 µM, first compound 0.1 µM
[33] = second compound 10 µM, first compound 0.316 µM
[34] = second compound 10 µM, first compound 1 µM
[35] = second compound 10 µM, first compound 3.16 µM
[36] = second compound 10 µM, first compound 10 µM
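Note: spheroids exposed to compounds for seven days before readout.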

SMILES: COc1ccc([C@@H](O)c2cc(-c3ncnc4cc(N5CCOCC5)ccc34)c(F)cc2Cl)nn1 + CN(C)c1ccc(Nc2c3ccc(NC(=O)CCN4CCCC4)cc3nc3cc(NC(=O)CCN4CCCC4)ccc23)cc1
- IC50 (second compound 0.0316 µM): 8.39 µM
- IC50 (second compound 0.1 µM): > 10 µM
- IC50 (second compound 0.316 µM): 9.75 µM
- IC50 (second compound 1 µM): 8.02 µM
- IC50 (second compound 3.16 µM): 8.26 µM
- IC50 (second compound 10 µM): 6.96 µM
- viability, T/C [1]: 97.4%
- viability, T/C [2]: 98.5%
- viability, T/C [3]: 94.6%
- viability, T/C [4]: 87.2%
- viability, T/C [5]: 67.2%
- viability, T/C [6]: 46.9%
- viability, T/C [7]: 99.3%
- viability, T/C [8]: 101%
- viability, T/C [9]: 89.4%
- viability, T/C [10]: 81.2%
- viability, T/C [11]: 72.9%
- viability, T/C [12]: 50%
- viability, T/C [13]: 97.2%
- viability, T/C [14]: 96.7%
- viability, T/C [15]: 89.3%
- viability, T/C [16]: 82.3%
- viability, T/C [17]: 68.5%
- viability, T/C [18]: 49.3%
- viability, T/C [19]: 93.6%
- viability, T/C [20]: 103%
- viability, T/C [21]: 100%
- viability, T/C [22]: 79%
- viability, T/C [23]: 74.3%
- viability, T/C [24]: 44.4%
- viability, T/C [25]: 102%
- viability, T/C [26]: 96.4%
- viability, T/C [27]: 98.7%
- viability, T/C [28]: 83.3%
- viability, T/C [29]: 68.4%
- viability, T/C [30]: 46.3%
- viability, T/C [31]: 88.8%
- viability, T/C [32]: 77.3%
- viability, T/C [33]: 90.5%
- viability, T/C [34]: 72.8%
- viability, T/C [35]: 63.8%
- viability, T/C [36]: 44%

SMILES: O=C(c1cc(Cc2n[nH]c(=O)c3ccccc23)ccc1F)N1CCN(C(=O)C2CC2)CC1 + CN(C)c1ccc(Nc2c3ccc(NC(=O)CCN4CCCC4)cc3nc3cc(NC(=O)CCN4CCCC4)ccc23)cc1
- IC50 (second compound 0.0316 µM): > 10 µM
- IC50 (second compound 0.1 µM): > 10 µM
- IC50 (second compound 0.316 µM): > 10 µM
- IC50 (second compound 1 µM): > 10 µM
- IC50 (second compound 3.16 µM): > 10 µM
- IC50 (second compound 10 µM): > 10 µM
- viability, T/C [1]: 111%
- viability, T/C [2]: 100%
- viability, T/C [3]: 93.4%
- viability, T/C [4]: 102%
- viability, T/C [5]: 107%
- viability, T/C [6]: 90.8%
- viability, T/C [7]: 107%
- viability, T/C [8]: 94.2%
- viability, T/C [9]: 104%
- viability, T/C [10]: 95.9%
- viability, T/C [11]: 103%
- viability, T/C [12]: 96%
- viability, T/C [13]: 99.2%
- viability, T/C [14]: 89.1%
- viability, T/C [15]: 95.9%
- viability, T/C [16]: 98.9%
- viability, T/C [17]: 100%
- viability, T/C [18]: 97.2%
- viability, T/C [19]: 93.2%
- viability, T/C [20]: 88.7%
- viability, T/C [21]: 98.5%
- viability, T/C [22]: 93.6%
- viability, T/C [23]: 113%
- viability, T/C [24]: 89.9%
- viability, T/C [25]: 97.1%
- viability, T/C [26]: 90.7%
- viability, T/C [27]: 92.5%
- viability, T/C [28]: 89.3%
- viability, T/C [29]: 103%
- viability, T/C [30]: 92%
- viability, T/C [31]: 91.1%
- viability, T/C [32]: 84.6%
- viability, T/C [33]: 88%
- viability, T/C [34]: 82.9%
- viability, T/C [35]: 96.2%
- viability, T/C [36]: 90.6%
